Source: patent publication US11453666B2, “Autotaxin inhibitory compounds” (Cancer Research Technology Limited, priority 2015, dated 2022)
Like-named read-outs stand apart in the source and are kept apart here.

Target: human recombinant ATX (Homo sapiens, UniProt Q13822)
Assay: Autotaxin (ATX) activity Quanta Red assay
Assay type: biochemical
Procedure, shortened: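 Recombinant human ATX reaction stopped after 2 h with Quanta Red stop solution; fluorescence read at […]. Controls with DMSO, with and without ATX; IC50 in duplicate.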

[1] = read-out: Activity (ATX activity, Quanta Red assay; IC50)
[2] = Table 2: additional compounds tested for ATX activity (Quanta Red Assay), read-out: Activity

Structure (SMILES)	IC50 [1]	also measured
CCN(CC)Cc1ccc([C@H](C)NC(=O)CCc2nc3cccnc3n2Cc2ccc(F)c(F)c2)cc1 [Example 207, N-[(S)-1-(4-Diethylaminomethyl-phenyl)-ethyl]-3-[3-(3,4-difluoro-benzyl)-3H-imidazo[4,5-b]pyridin-2-yl]-propionamide]	0.025 µM	
O=C(COc1nc2cccnc2n1Cc1ccc(OC(F)(F)F)cc1)N[C@@H](CO)c1ccccc1 [Example 151, N-((R)-2-Hydroxy-1-phenyl-ethyl)-2-[3-(4-trifluoromethoxy-benzyl)-3H-imidazo[4,5-b]pyridin-2-yloxy]-acetamide]	0.003 µM	
COc1ccc(Cn2c(CCC(=O)NCc3cccc(C)c3)nc3cccnc32)cc1 [Example 115, 3-[3-(4-Methoxy-benzyl)-3H-imidazo[4,5-b]pyridin-2-yl]-N-(3-methyl-benzyl)-propionamide]	0.65 µM	
C[C@H](NC(=O)CCc1nc2cccnc2n1Cc1ccc(OC(F)(F)F)cc1)c1ccc(N[C@H]2CCNC2)cc1 [Example 175, N-{(S)-1-[4-((S)-Pyrrolidin-3-ylamino)-phenyl]-ethyl}-3-[3-(4-trifluoromethoxy-benzyl)-3H-imidazo[4,5-b]pyridin-2-yl]-propionamide]	0.003 µM	
O=C(CCc1nc2cccnc2n1Cc1ccc(OC(F)(F)F)cc1)NC[C@@H](O)c1ccccc1 [Example 36, N-((S)-2-Hydroxy-2-phenyl-ethyl)-3-[3-(4-trifluoromethoxy-benzyl)-3H-imidazo[4,5-b]pyridin-2-yl]-propionamide]	0.007 µM	
C[C@H](NC(=O)CSc1nc2cccnc2n1Cc1ccc(F)cc1)c1ccc(N2CCOCC2)cc1 [Example 147, 2-[3-(4-Fluoro-benzyl)-3H-imidazo[4,5-b]pyridin-2-ylsulfanyl]-N-[(S)-1-(4-morpholin-4-yl-phenyl)-ethyl]-acetamide]	0.003 µM	
CC(C)(NC(=O)CCc1nc2ccncc2n1Cc1ccc(F)cc1)c1ccccc1 [Example 136, 3-[3-(4-Fluoro-benzyl)-3H-imidazo[4,5-c]pyridin-2-yl]-N-(1-methyl-1-phenyl-ethyl)-propionamide]	0.115 µM	
C[C@H](NC(=O)CCc1nc2cccnc2n1Cc1ccc(F)cc1)c1ccc(N2CCC(CO)CC2)cc1 [Example 181, 3-[3-(4-Fluoro-benzyl)-3H-imidazo[4,5-b]pyridin-2-yl]-N-{(S)-1-[4-(4-hydroxymethyl-piperidin-1-yl)-phenyl]-ethyl}-propionamide]	0.007 µM	
C[C@H](NC(=O)CCc1nc2cccnc2n1Cc1ccc(F)cc1)c1ccc(F)cc1 [Example 88, 3-[3-(4-Fluoro-benzyl)-3H-imidazo[4,5-b]pyridin-2-yl]-N-[(S)-1-(4-fluoro-phenyl)-ethyl]-propionamide]	0.006 µM	
COc1ccc(Cn2c(CCC(=O)NC(C)C)nc3cccnc32)cc1 [Example 113, N-Isopropyl-3-[3-(4-methoxy-benzyl)-3H-imidazo[4,5-b]pyridin-2-yl]-propionamide]	1.5 µM	
O=C(CCc1nc2cccnc2n1Cc1ccc(OC(F)(F)F)cc1)NCc1ccc(Cl)cc1 [Example 18, N-(4-Chloro-benzyl)-3-[3-(4-trifluoromethoxy-benzyl)-3H-imidazo[4,5-b]pyridin-2-yl]-propionamide]	0.003 µM	
COc1ccc(Cn2c(CCC(=O)NCc3ccc4c(ccn4C)c3)nc3cccnc32)cc1 [Example 105, 3-[3-(4-Methoxy-benzyl)-3H-imidazo[4,5-b]pyridin-2-yl]-N-(1-methyl-1H-indol-5-ylmethyl)-propionamide]	0.088 µM	
COc1ccc(CNC(=O)CCc2nc3cccnc3n2Cc2ccc(OC(F)(F)F)cc2)cc1 [Example 14, N-(4-Methoxy-benzyl)-3-[3-(4-trifluoromethoxy-benzyl)-3H-imidazo[4,5-b]pyridin-2-yl]-propionamide]	0.002 µM	
O=C(CCc1nc2cccnc2n1Cc1ccc(OC(F)(F)F)cc1)N[C@@H](CO)c1ccccc1 [Example 7, N-((R)-2-Hydroxy-1-phenyl-ethyl)-3-[3-(4-trifluoromethoxy-benzyl)-3H-imidazo[4,5-b]pyridin-2-yl]-propionamide]	0.001 µM	
O=C(CCc1nc2cccnc2n1Cc1ccc(F)c(F)c1)NC(CO)c1ccc(OC(F)(F)F)cc1 (stereo not shown) [Example 39, 3-[3-(3,4-Difluoro-benzyl)-3H-imidazo[4,5-b]pyridin-2-yl]-N-[2-hydroxy-1-(4-trifluoromethoxy-phenyl)-ethyl]-propionamide]	0.007 µM	
C[C@@H]1CN(c2ccc([C@H](C)NC(=O)CCc3nc4cccnc4n3Cc3ccc(OC(F)(F)F)cc3)cc2)C[C@H](C)N1 [Example 171, N-{(S)-1-[4-((cis)-3,5-Dimethyl-piperazin-1-yl)-phenyl]-ethyl}-3-[3-(4-trifluoromethoxy-benzyl)-3H-imidazo[4,5-b]pyridin-2-yl]-propionamide]	0.002 µM	
CCC[C@H](NC(=O)CCc1nc2cccnc2n1Cc1ccc(OC)cc1)c1ccccc1 [Example 99]	0.048 µM	

Structure (SMILES)	IC50 [1]	also measured
COc1ccc(Cn2c(CCC(=O)NCc3ccc4c(c3)OCO4)nc3cccnc32)cc1 [Example 234, N-Benzo[1,3]dioxol-5-ylmethyl-3-[3-(4-methoxy-benzyl)-3H-imidazo[4,5-b]pyridin-2-yl]-propionamide]		IC50 [2]: 0.72 µM
C[C@H](NC(=O)CCc1nc2cc(Br)cnc2n1Cc1ccc(F)cc1)c1ccc(Cl)cc1 [Example 70, 3-[6-Bromo-3-(4-fluoro-benzyl)-3H-imidazo[4,5-b]pyridin-2-yl]-N-[(S)-1-(4-chloro-propionimide)]]	0.242 µM	
O=C(CCc1nc2cccnc2n1Cc1ccc(F)c(F)c1)NCc1ccc(OC(F)(F)F)cc1 [Example 57, 3-[3-(3,4-Difluoro-benzyl)-3H-imidazo[4,5-b]pyridin-2-yl]-N-(4-trifluoromethoxy-benzyl)-propionamide]	0.058 µM	
COc1ccc(Cn2c(CCC(=O)NCc3ccc(F)cc3)nc3cccnc32)cc1 [Example 219, N-(4-Fluoro-benzyl)-3-[3-(4-methoxy-benzyl)-3H-imidazo[4,5-b]pyridin-2-yl]-propionamide]		IC50 [2]: 0.089 µM
CC(NC(=O)CCc1nc2cccnc2n1Cc1ccc(OC(F)(F)F)cc1)C1CCOCC1 (stereo not shown) [Example 56, N-[1-(Tetrahydro-pyran-4-yl)-ethyl]-3-[3-(4-trifluoromethoxy-benzyl)-3H-imidazo[4,5-b]pyridin-2-yl]-propionamide]	0.045 µM	
COc1ccc(CNC(=O)CCc2nc3cc(F)cnc3n2Cc2ccccc2OC)cc1 [Example 101, 3-[6-Fluoro-3-(2-methoxy-benzyl)-3H-imidazo[4,5-b]pyridin-2-yl]-N-(4-methoxy-benzyl)-propionamide]	0.055 µM	
O=C(CCc1nc2cccnc2n1Cc1ccc(F)c(F)c1)N[C@@H]1c2ccccc2C[C@@H]1O [Example 46, 3-[3-(3,4-Difluoro-benzyl)-3H-imidazo[4,5-b]pyridin-2-yl]-N-((1R,2S)-2-hydroxy-indan-1-yl)-propionamide]	0.018 µM	
Cc1cnc2c(c1)nc(CCC(=O)NCc1ccc(OCCCN(C)C)cc1)n2Cc1ccc(OC(F)(F)F)cc1 [Example 26, N-[4-(3-Dimethylamino-propoxy)-benzyl]-3-[6-methyl-3-(4-trifluoromethoxy-benzyl)-3H-imidazo[4,5-b]pyridin-2-yl]-propionamide]	0.004 µM	
CC(C)(C)OC(=O)N1CCC(CNC(=O)CCc2nc3ccncc3n2Cc2ccc(OC(F)(F)F)cc2)CC1 [Example 135, 4-({3-[3-(4-Trifluoromethoxy-benzyl)-3H-imidazo[4,5-c]pyridin-2-yl]-propionylamino}-methyl)-piperidine-1-carboxylic acid tert-butyl ester]	1.57 µM	
CS(=O)(=O)N1CCC(CNC(=O)CCc2nc3cccnc3n2Cc2ccc(OC(F)(F)F)cc2)CC1 [Example 214, N-(1-methanesulfonyl-piperidin-4-ylmethyl)-3-[3-(4-trifluoromethoxy-benzyl)-3H-imidazo[4,5-b]pyridin-2-yl]-propionamide]	0.03 µM	
C[C@H](NC(=O)CCc1nc2cccnc2n1Cc1ccc(F)c(F)c1)c1ccc(CN2CCOCC2)cc1 [Example 206, 3-[3-(3,4-difluoro-benzyl)-3H-imidazo[4,5-b]pyridin-2-yl]-N—[(S)-1-(4-morpholin-4-ylmethyl-phenyl)-ethyl]-propionamide]	0.003 µM	
C[C@H](NC(=O)C[S+]([O-])c1nc2cccnc2n1Cc1ccc(OC(F)(F)F)cc1)c1ccc(F)cc1 (single isomer, unassigned) [Example 149]		IC50 (human recombinant ATX 0.8 μg/mL, 2 hours at room temperature, IC50 determined in duplicate, read-out: Activity (ATX activity, Quanta Red assay; IC50)): 0.178 µM
O=C(CCc1nc2cccnc2n1Cc1ccc(F)c(F)c1)N[C@@H]1c2ccccc2C[C@H]1O [Example 59, 3-[3-(3,4-Difluoro-benzyl)-3H-imidazo[4,5-b]pyridin-2-yl]-N-((1R,2R)-2-hydroxy-indan-1-yl)-propionamide]	0.063 µM	
Cc1cnc(NC(=O)CCc2nc3cccnc3n2Cc2ccc(OC(F)(F)F)cc2)s1 [Example 81, N-(5-Methyl-thiazol-2-yl)-3-[3-(4-trifluoromethoxy-benzyl)-3H-imidazo[4,5-b]pyridin-2-yl]-propionamide]	1.48 µM	
C[C@H](NC(=O)CCc1nc2cccnc2n1Cc1ccc(F)c(F)c1)c1ccc(Br)cc1 [Example 17, N-[(S)-1-(4-Bromo-phenyl)-ethyl]-3-[3-(3,4-difluoro-benzyl)-3H-imidazo[4,5-b]pyridin-2-yl]-propionamide]	0.003 µM	
CN(C)c1ccc(CNC(=O)CCc2nc3cccnc3n2Cc2ccc(F)cc2)cc1 [Example 58, N-(4-Dimethylamino-benzyl)-3-[3-(4-fluoro-benzyl)-3H-imidazo[4,5-b]pyridin-2-yl]-propionamide]	0.061 µM	
O=C(CCc1nc2ccncc2n1Cc1ccc(OC(F)(F)F)cc1)NC(CO)c1ccc(OC(F)(F)F)cc1 (stereo not shown) [Example 126, N-[2-Hydroxy-1-(4-trifluoromethoxy-phenyl)-ethyl]-3-[3-(4-trifluoromethoxy-benzyl)-3H-imidazo[4,5-c]pyridin-2-yl]-propionamide]	0.011 µM	
